Values after ≈ are worked out from the molar mass of the structure shown. Where two headings read alike, the source gives them in different places.
Experiments:
EC1001 acc(6′)-Ib = assay: microbe, parasite or virus in culture; format: cell-based, Escherichia coli; conditions: Escherichia coli; Table 4; read-out: Compound MIC on Bacterial Strains: Escherichia coli EC1001 acc(6′)-Ib
Experimental: (§1) To compare microbiological activity of the test compounds, minimum inhibitory concentrations (MIC.s) were determined. Antibiotic MICs were obtained using the broth microdilution method according to Clinical and Laboratory Standards Institute (CLSI) approved guidelines (Methods for dilution antimicrobial susceptibility tests for bacteria that grow aerobically; approved standard—7th ed. CLSI document M7-A7. Clinical and Laboratory Standards Institute, Wayne, Pa., incorporated herein by reference in its entirety). Antibiotics were dissolved as specified by CLSI (Performance standards for antimicrobial susceptibility testing; Seventeenth informational supplement. CLSI document M100-S17. Clinical and Laboratory Standards Institute, Wayne, Pa., incorporated herein by reference in its entirety), and were serially diluted 2-fold in cation adjusted Mueller Hinton Broth (CaMHB) at 2× concentration. Bacterial inoculums were prepared in CaMHB by suspension of a colony from an agar plate that was prepared the previous day to obtain a final concentration of 5×10^5CFU/ml. The plates were incubated for 18 hours at 35° C. […] MIC.s were determined by reading the turbidity of plate wells using a SpectraMax Plus384 plate reader (Molecular Devices, Sunnyvale, Calif., USA) at 600 nm and were confirmed by visual inspection.

[1] = tested on: ECM6007 aac(6′) + aph(2″); assay: microbe, parasite or virus in culture; format: cell-based, Escherichia coli; conditions: Escherichia coli, 18 h; Table 4; read-out: Compound MIC on Bacterial Strains: Escherichia coli ECM6007 aac(6′) + aph(2″)
Experimental: as §1

ACM1005 ATCC 19004 = assay: MIC, broth microdilution; format: cell-based, Acinetobacter baumannii; conditions: Acinetobacter baumannii, ATCC19004; Table 4; read-out: Compound MIC on Bacterial Strains: Acinetobacter baumannii ACM1005 ATCC 19004
Experimental: as §1

ACM1006 acc(6′)-Ib = assay: microbe, parasite or virus in culture; format: cell-based, Acinetobacter baumannii; conditions: Acinetobacter baumannii; Table 4; read-out: Compound MIC on Bacterial Strains: Acinetobacter baumannii ACM1006 acc(6′)-Ib
Experimental: as §1

[2] = tested on: Escherichia coli (ATCC 25922); assay: MIC, broth microdilution; conditions: Escherichia coli
[3] = tested on: Staphylococcus aureus (ATCC 29213); assay: MIC, broth microdilution; conditions: Staphylococcus aureus
[4] = tested on: Klebsiella pneumonia (ATCC 43816); assay: MIC, broth microdilution; conditions: Klebsiella pneumoniae, ATCC43816, read-out: Compound MIC on Bacterial Strains: K. pneumonia ATCC 43816
[5] = tested on: Pseudomonas aeruginosa (ATCC 27853); assay: MIC, broth microdilution; conditions: Pseudomonas aeruginosa
[6] = tested on: Acinetobacter baumannii (ATCC 19606); assay: MIC, broth microdilution; conditions: Acinetobacter baumannii, ATCC19606, read-out: Compound MIC on Bacterial Strains: A. baumannii ATCC 19606
ECM6006 aph(3′)-III = assay: microbe, parasite or virus in culture; format: cell-based, Escherichia coli; conditions: Escherichia coli, read-out: Compound MIC on Bacterial Strains: ECM6006 aph(3′)-III
Experimental: as §1
(§2) Activity of the test compounds was determined using QC strains and strains with known aminoglycoside resistance mechanisms (TABLE 3). This specific panel contained strains expressing enzymes that covalently modify N2″, N3 and N3′ positions.

ECM6009 aac(3)-II = assay: microbe, parasite or virus in culture; format: cell-based, Escherichia coli; conditions: Escherichia coli, read-out: Compound MIC on Bacterial Strains: ECM6009 aac(3)-II
Experimental: as §1, §2

ECM6010 ant(2″)-I = assay: microbe, parasite or virus in culture; format: cell-based, Escherichia coli; conditions: Escherichia coli, read-out: Compound MIC on Bacterial Strains: ECM6010 ant(2″)-I
Experimental: as §1, §2

ECM6011 aph(3′)-I = assay: microbe, parasite or virus in culture; format: cell-based, Escherichia coli; conditions: Escherichia coli, read-out: Compound MIC on Bacterial Strains: ECM6011 aph(3′)-I
Experimental: as §1, §2

ECM6003 rmtB = assay: microbe, parasite or virus in culture; format: cell-based, Escherichia coli; conditions: Escherichia coli; Table 3; read-out: Compound MIC on Bacterial Strains: ECM6003 rmtB
Experimental: as §1, §2
The panel also contained a strain expressing ribosomal RNA methylase, RmtB.

EC1002 aph(3′)-IV = assay: organism not typed; format: cell-based; conditions: read-out: Compound MIC on Bacterial Strains: EC1002 aph(3′)-IV
Experimental: as §1, §2

PAM3072 aac(6′)-II = assay: microbe, parasite or virus in culture; format: cell-based, Pseudomonas aeruginosa; conditions: Pseudomonas aeruginosa, Table 5; read-out: Compound MIC on Bacterial Strains: Pseudomonas aeruginosa PAM3072 aac(6′)-II
Experimental: as §1

PAM3073 aac(6′)-I = assay: microbe, parasite or virus in culture; format: cell-based, Pseudomonas aeruginosa; conditions: Pseudomonas aeruginosa, Table 5; read-out: Compound MIC on Bacterial Strains: Pseudomonas aeruginosa PAM3073 aac(6′)-I
Experimental: as §1

[7] = ATCC25922, read-out: Compound MIC on Bacterial Strains: E. coli ATCC 25922
[8] = ATCC25922, read-out: Compound MIC on Bacterial Strains: Escherichia coli ECM6000 ATCC 25922
[9] = ATCC29213, read-out: Compound MIC on Bacterial Strains: S. aureus ATCC 29213, QC strain, Table 2
[10] = ATCC27853, read-out: Compound MIC on Bacterial Strains: P. aeruginosa ATCC 27853
[11] = ATCC25922, read-out: Compound MIC on Bacterial Strains: ECM6000 ATCC 25922
[12] = ATCC29213, read-out: Compound MIC on Bacterial Strains: Staphylococcus aureus SAM1000 ATCC 29213, Table 5
[13] = ATCC27853, read-out: Compound MIC on Bacterial Strains: Pseudomonas aeruginosa PAM3034 ATCC 27853

| SMILES | MIC (EC1001 acc(6′)-Ib) | MIC [1] | MIC (ACM1005 ATCC 19004) | MIC (ACM1006 acc(6′)-Ib) | MIC [2, 7] | MIC [2, 8] | MIC [3, 9] | MIC [4] | MIC [5, 10] | MIC [6] | MIC (ECM6006 aph(3′)-III) | MIC (ECM6009 aac(3)-II) | MIC (ECM6010 ant(2″)-I) | MIC (ECM6011 aph(3′)-I) | MIC (ECM6003 rmtB) | MIC (EC1002 aph(3′)-IV) | MIC (PAM3072 aac(6′)-II) | MIC (PAM3073 aac(6′)-I) | MIC [2, 11] | MIC [3, 12] | also measured |
| --- | --- | --- | --- | --- | --- | --- | --- | --- | --- | --- | --- | --- | --- | --- | --- | --- | --- | --- | --- | --- | --- |
| CN[C@@H]1[C@@H](O)[C@@H](O[C@@H]2[C@@H](O)[C@H](O[C@H]3O[C@H](CN)CC[C@H]3N)[C@@H](N)C[C@H]2NC(=O)[C@@H](O)[C@H](N)CN)OC[C@]1(C)O [Compound 3, (2S,3R)-3,4-diamino-N-((1R,2S,3S,4R,5S)-5-amino-4-((2R,3R,6S)-3-amino-6-(aminomethyl)tetrahydro-2H-pyran-2-yloxy)-2-((2R,3R,4R,5R)-3,5-dihydroxy-5-methyl-4-(methylamino)tetrahydro-2H-pyran-2-yloxy)-3-hydroxycyclohexyl)-2-hydroxybutanamide] | > 8 µg/mL | < 1 µg/mL | 1 to 8 µg/mL (≈ 1.77 to 14.1 µM) | 1 to 8 µg/mL (≈ 1.77 to 14.1 µM) | < 1 µg/mL | 1 to 8 µg/mL (≈ 1.77 to 14.1 µM) | < 1 µg/mL | < 1 µg/mL | < 1 µg/mL | > 8 µg/mL |  |  |  |  |  |  |  |  |  |  |  |
| CN[C@@H]1[C@@H](O)[C@@H](O[C@@H]2[C@@H](O)[C@H](O[C@H]3O[C@H](CNCC(O)CO)CC[C@H]3N)[C@@H](N)C[C@H]2NC(=O)[C@@H](O)CCN)OC[C@]1(C)O (stereo partly drawn) [Compound 8, (2S)-4-amino-N-((1R,2S,3S,4R,5S)-5-amino-4-((2R,3R,6S)-3-amino-6-((2,3-dihydroxypropylamino)methyl)tetrahydro-2H-pyran-2-yloxy)-2-((2R,3R,4R,5R)-3,5-dihydroxy-5-methyl-4-(methylamino)tetrahydro-2H-pyran-2-yloxy)-3-hydroxycyclohexyl)-2-hydroxybutanamide] | < 1 µg/mL | < 1 µg/mL | 1 to 8 µg/mL (≈ 1.6 to 12.8 µM) | 1 to 8 µg/mL (≈ 1.6 to 12.8 µM) | < 1 µg/mL | < 1 µg/mL | < 1 µg/mL | < 1 µg/mL | 1 to 8 µg/mL (≈ 1.6 to 12.8 µM) | > 8 µg/mL | 1 to 8 µg/mL (≈ 1.6 to 12.8 µM) | < 1 µg/mL | < 1 µg/mL | < 1 µg/mL | > 8 µg/mL | < 1 µg/mL | > 8 µg/mL | 1 to 8 µg/mL (≈ 1.6 to 12.8 µM) | < 1 µg/mL | < 1 µg/mL | MIC [5, 13]: 1 to 8 µg/mL (≈ 1.6 to 12.8 µM) |
| CN[C@@H]1[C@@H](O)[C@@H](O[C@@H]2[C@@H](O)[C@H](O[C@H]3O[C@H](CN)CC[C@H]3N)[C@@H](N)C[C@H]2NC(=O)[C@@H](O)[C@H](N)CO)OC[C@]1(C)O [Compound 20, (2S,3R)-3-amino-N-((1R,2S,3S,4R,5S)-5-amino-4-((2R,3R,6S)-3-amino-6-(aminomethyl)tetrahydro-2H-pyran-2-yloxy)-2-((2R,3R,4R,5R)-3,5-dihydroxy-5-methyl-4-(methylamino)tetrahydro-2H-pyran-2-yloxy)-3-hydroxycyclohexyl)-2,4-dihydroxybutanamide] |  |  |  |  | 1 to 8 µg/mL (≈ 1.76 to 14.1 µM) |  | 1 to 8 µg/mL (≈ 1.76 to 14.1 µM) | < 1 µg/mL | 1 to 8 µg/mL (≈ 1.76 to 14.1 µM) | > 8 µg/mL | 1 to 8 µg/mL (≈ 1.76 to 14.1 µM) | < 1 µg/mL | 1 to 8 µg/mL (≈ 1.76 to 14.1 µM) | 1 to 8 µg/mL (≈ 1.76 to 14.1 µM) | > 8 µg/mL | 1 to 8 µg/mL (≈ 1.76 to 14.1 µM) | > 8 µg/mL | > 8 µg/mL | 1 to 8 µg/mL (≈ 1.76 to 14.1 µM) | 1 to 8 µg/mL (≈ 1.76 to 14.1 µM) | MIC [5, 13]: 1 to 8 µg/mL (≈ 1.76 to 14.1 µM) |
